Source: publication PMC8752837, “Structural basis of BAK activation in mitochondrial apoptosis initiation” (Nature Communications, 2022)
Residue numbers refer to the chain shown, from its start. Several values for one entry are separate records, joined by “and”; a condition that tells them apart may be missing. Identical values can stand only once. Like-named read-outs stand apart in the source and are kept apart here.

Tests used:
V74A(1) BAK = experiment: Liposome permeabilization assay: BH3 peptide activation of V74A(1) BAK receptor; assay type: biochemical, human; settings: Suppl. Figs. 3e, 4d
Experimental: (§1) We performed liposome permeabilization assays as previously described[43]-[46]. […] We mixed the lipid film in ANTS/DPX solution by vortexing and sonication (~15 min) followed by extrusion through polycarbonate membrane of 2 μm pore size (Avanti Polar lipids) to generate homogenous large unilamellar vesicles (LUVs). We separated LUVs from free ANTS/DPX by S500 size exclusion chromatography and stored them at 4 °C in the dark. We prepared peptide and protein dilutions in 96-well black flat bottom plates (Costar) kept on ice. […] We quantified liposome permabilization by integrating area under curve (AUC) of normalized traces based on the Simpson's equation, and analyzed that data in Excel and GraphPad Prism. AUC measurements reflect the kinetic and extent of liposome permeabilization and provide quantitative means for comparison between different experimental conditions (e.g., BAK mutants with gross or partial variation in activity). Variability in permeabilization of different liposomes is common and our analyses compare among conditions investigated with the same liposomes. Although the absolute permeabilization values may differ, the trends for the same conditions are always very similar between different liposomes.

I81R BAK = biological target: T1, I81R BAK (Homo sapiens, UniProt Q16611, I81R); experiment: Isothermal titration calorimetry with mutant BAK; assay type: binding; settings: KD could not be obtained by ITC or SPR
T1 construct: To generate tevBAK (residues 22–186), we cleaved off the histidine tag with TEV protease; His tag (vector pNIC28-Bsa4) (N, cleaved yes); made in house; host or cells: E. coli T7 Express pLac I/Y
T1 sequence (Q16611 22-186 I81R): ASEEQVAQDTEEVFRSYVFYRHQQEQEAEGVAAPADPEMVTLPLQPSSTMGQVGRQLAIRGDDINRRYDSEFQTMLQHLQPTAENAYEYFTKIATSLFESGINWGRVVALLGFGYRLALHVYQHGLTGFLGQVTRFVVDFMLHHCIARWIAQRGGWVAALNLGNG
Experimental: Protein samples were exchanged into 20 mM HEPES, 100 mM NaCl and 1 mM TCEP prior to the experiment. Titrations were performed by first injecting 0.5 μl of 250 or 500 µM BID BH3 peptides into a solution of 20 or 50 µM BAK followed by additional 2 μl injections. […] Results were analyzed using Origin software (OriginLab) provided by MicroCal. Binding constants (KD) and thermodynamic parameters were calculated from the average of two or three individual titrations by fitting the data to a single site binding model using a nonlinear least-squares fitting algorithm.

I81A(3) BAK = experiment: Liposome permeabilization assay: BH3 peptide activation of I81A(3) BAK receptor; assay type: biochemical, human; settings: 50 nM mutant BAK; Suppl. Fig. 4f
Experimental: as §1

Human BAK-∆TM-His6 (BAK) = biological target: T2, Human BAK-∆TM-His6 (BAK) (Homo sapiens, UniProt Q16611); experiment: Liposome permeabilization assay (ANTS/DPX dye release from LUVs): activation of WT BAK by BH3 peptides;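 as to AUC for Experiment-2 (Mean): traces normalized between buffer minimum and 3% CHAPS maximum fluorescence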;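 as to AUC for Experiment-3 (Mean): traces normalized between buffer minimum and 3% CHAPS maximum fluorescence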; assay type: biochemical; design: AUC for Experiment-2 (Mean) / AUC for Experiment-3 (Mean) / AUC for Experiment-1 (Mean):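 traces normalized between buffer minimum and 3% CHAPS maximum fluorescence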; settings: for EC50: 50 nM BAK; for AUC for Experiment-1 (Mean) / AUC for Experiment-2 (Mean) / AUC for Experiment-3 (Mean): AUC 0-88 mins of liposome permeabilization; for AUC for Experiment-1 (Mean): Experiment-1, mean of N replicates; for AUC for Experiment-2 (Mean): Experiment-2, mean of N replicates; for AUC for Experiment-3 (Mean): Experiment-3, mean of N replicates; for peptide concentration at which ligands activate WT BAK / lowest dose at which permeabilization is observed: liposome permeabilization; for peptide concentration at which ligands activate WT BAK: Suppl. Figs. 3e, 4d, e; for lowest dose at which permeabilization is observed: robust across experiments; for activation of WT BAK in liposome permeabilization assays: BAK BH3 peptide ligands, 50 nM WT BAK receptor
T2 construct: C-terminus truncated recombinant human BAK containing C-terminal 6× histidine tag (MEAS-BAK); made in house; host or cells: E. coli T7 Express pLac I/Y
T2 sequence (Q16611 1-186 limits assumed): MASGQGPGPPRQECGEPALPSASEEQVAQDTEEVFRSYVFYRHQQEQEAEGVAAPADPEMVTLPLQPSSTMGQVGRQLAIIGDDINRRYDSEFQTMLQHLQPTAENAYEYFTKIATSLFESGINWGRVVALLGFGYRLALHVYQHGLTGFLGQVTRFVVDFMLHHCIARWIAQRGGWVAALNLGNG

D83A(s) BAK = biological target: T3, D83A(s) BAK (Homo sapiens, UniProt Q16611, D83A); experiment: Liposome permeabilization assay: BH3 peptide activation of D83A(s) BAK receptor; assay type: biochemical; settings: for liposome permeabilization by 50 nM D83A(s) BAK receptor: 50 nM mutant BAK, Suppl. Fig. 4f; for EC50: EC50 of liposome permeabilization by 200 nM D83A(s) BAK, 200 nM D83A(s) BAK, Suppl. Fig. 3e, 4e
T3 construct: C-terminus truncated recombinant human BAK containing C-terminal 6× histidine tag (MEAS-BAK); made in house; host or cells: E. coli T7 Express pLac I/Y
T3 sequence (Q16611 1-186 D83A limits assumed): T2 sequence (Q16611 1-186 limits assumed) with D83A
Experimental: as §1

MEAS-BAK-His6 = biological target: T4, MEAS-BAK-His6 (Homo sapiens, UniProt Q16611); experiment: Surface plasmon resonance; assay type: binding; settings: 20 °C; for Kd: MEAS-BAK-His6 captured on Ni-NTA HisCap chip, three-fold peptide dilution series injected in triplicate, read-out: SPR KD
T4 construct: C-terminus truncated recombinant human BAK containing C-terminal 6× histidine tag (MEAS-BAK); made in house; host or cells: E. coli T7 Express pLac I/Y
T4 sequence (Q16611 1-186 limits assumed): T2 sequence (Q16611 1-186 limits assumed)
Experimental: We conducted SPR experiments at 20 °C using a Pioneer FE optical biosensor (ForteBio) amd histidine-tagged MEAS-BAK-His6 immobilized on polycarboxylate hydrogel-coated gold chips preimmobilized with nitrilotriacetic acid (HisCap chips; ForteBio). We primed the chip in chelating buffer (10 mM HEPES pH 7.4, 150 mM NaCl, 50 µM EDTA, 0.005% Tween20) and preconditioned it at 10 µL/min with three 60 s injections of wash buffer (10 mM HEPES pH 8.3, 150 mM NaCl, 350 mM EDTA, 0.05% Tween20) and one 60 s injection of chelating buffer before charging with a 60 s injection of 500 µM NiCl2 in chelating buffer. After priming into binding buffer (20 mM HEPES pH 8.0, 200 mM NaCl, 1 mM TCEP, 0.01% Tween20), we injected BAK to achieve ~500 RU of captured protein. As reference cell, we charged one flow cell on the chip with Ni^2+ without adding protein. […] We included a series of buffer-only (blank) injections throughout the experiment to account for instrumental noise. […] We processed, double-referenced, solvent corrected, and analyzed the data using the software package Qdat (version 4.3.1.2, ForteBio). We determined kinetic rate constants and affinities by fitting the data to a 1:1 interaction model.

SMILES	peptide concentration at which ligands activate V74A(1) BAK (V74A(1) BAK)	affinity for I81R BAK extrapolated by applying 2-fold difference compared to WT (I81R BAK)	liposome permeabilization by 50 nM I81A(3) BAK receptor (I81A(3) BAK)	peptide concentration at which ligands activate WT BAK (Human BAK-∆TM-His6 (BAK))	lowest dose at which permeabilization is observed (Human BAK-∆TM-His6 (BAK))	liposome permeabilization by 50 nM D83A(s) BAK receptor (D83A(s) BAK)	EC50 (D83A(s) BAK)	Kd (MEAS-BAK-His6; 1:1 interaction model)	other results
CC[C@H](C)[C@H](NC(=O)[C@H](CO)NC(=O)[C@H](CCCNC(=N)N)NC(=O)[C@H](CC(=O)O)NC(=O)[C@H](CCSC)NC(=O)[C@H](CO)NC(=O)[C@H](CC(=O)O)NC(=O)CNC(=O)[C@@H](NC(=O)[C@H](CCC(N)=O)NC(=O)[C@H](C)NC(=O)[C@H](CC(C)C)NC(=O)[C@H](Cc1c[nH]cn1)NC(=O)[C@H](CCCNC(=N)N)NC(=O)[C@H](C)NC(=O)[C@@H](NC(=O)[C@H](CC(N)=O)NC(=O)[C@H](CCCNC(=N)N)NC(=O)[C@@H](NC(=O)[C@@H](NC(=O)[C@H](CC(=O)O)NC(=O)[C@H](CCC(=O)O)NC(C)=O)[C@@H](C)CC)[C@@H](C)CC)[C@@H](C)CC)C(C)C)C(N)=O [WT BID BH3, reference compound]	above 1 µM	~ 130 µM	neither peptide ligands could promote liposome permeabilization	above 1 µM	1 µM	neither peptide ligands could promote liposome permeabilization	4 to 7 µM and 5 to 7 µM	62.3 ± 0.4 µM	EC50 (Human BAK-∆TM-His6 (BAK); EC50 from AUC vs peptide dose, data in Supplementary Figure 7c, 37 °C, 90 min, read-out: Liposome permeabilization EC50): 0.059 ± 0.012 µM; AUC for Experiment-1 (Mean) (Human BAK-∆TM-His6 (BAK); 1 μM peptide + 50 nM BAK): 17.777; AUC for Experiment-2 (Mean) (Human BAK-∆TM-His6 (BAK); 1 μM peptide + 50 nM BAK): 10.071; AUC for Experiment-3 (Mean) (Human BAK-∆TM-His6 (BAK); 1 μM peptide + 50 nM BAK): 10.975; AUC for Experiment-1 (Mean) (Human BAK-∆TM-His6 (BAK); 50 μM peptide + 50 nM BAK): 14.842; AUC for Experiment-2 (Mean) (Human BAK-∆TM-His6 (BAK); 50 μM peptide + 50 nM BAK): 13.692; AUC for Experiment-3 (Mean) (Human BAK-∆TM-His6 (BAK); 50 μM peptide + 50 nM BAK): 17.854; SPR kd (MEAS-BAK-His6; 1:1 interaction model): 2.61±0.01 ×10-1 s-1; kon (MEAS-BAK-His6; 1:1 interaction model, read-out: SPR ka): 4190 ± 20 M⁻¹ s⁻¹; SPR Rmax (MEAS-BAK-His6; ~500 RU captured BAK): 26.2±0.1 RU
CC[C@H](C)[C@H](NC(=O)[C@H](C)NC(=O)[C@H](CC(C)C)NC(=O)[C@H](CCC(N)=O)NC(=O)[C@H](CCCNC(=N)N)NC(=O)CNC(=O)[C@@H](NC(=O)[C@H](CCC(N)=O)NC(=O)CNC(=O)[C@H](CCSC)NC(=O)[C@@H](NC(=O)[C@H](CO)NC(=O)[C@H](CO)NC(C)=O)[C@@H](C)O)C(C)C)C(=O)N[C@H](C(=O)NCC(=O)N[C@@H](CC(=O)O)C(=O)N[C@@H](CC(=O)O)C(=O)N[C@H](C(=O)N[C@@H](CC(N)=O)C(=O)N[C@@H](CCCNC(=N)N)C(=O)N[C@@H](CCCNC(=N)N)C(=O)N[C@@H](Cc1ccc(O)cc1)C(N)=O)[C@@H](C)CC)[C@@H](C)CC [WT BAK BH3]	above 1 µM	~ 130 µM	neither peptide ligands could promote liposome permeabilization	above 1 µM	0.1 µM	neither peptide ligands could promote liposome permeabilization	4 to 7 µM and 5 to 7 µM	67 µM	EC50 (Human BAK-∆TM-His6 (BAK); EC50 from AUC vs peptide dose, data in Supplementary Figure 4b, 37 °C, 90 min, read-out: Liposome permeabilization EC50): 0.0358 ± 0.0304 µM; EC50 (Human BAK-∆TM-His6 (BAK); peer review file, read-out: EC50 analysis of liposome permeabilization (rebuttal, earlier manuscript version)): 0.05 to 0.2 µM; activation of WT BAK in liposome permeabilization assays (Human BAK-∆TM-His6 (BAK)): activates BAK in liposome permeabilization assays similarly to BID BH3; activation of WT BAK in liposome permeabilization assays (Human BAK-∆TM-His6 (BAK); listed as WT BAK BH3 peptide): potently activate WT BAK
